In article PMC9321894, “Design and Anticancer Properties of New Water-Soluble Ruthenium–Cyclopentadienyl Complexes” (Pharmaceuticals, 2022):

Key:
[1] = target: T1, human serum albumin (HSA) (Homo sapiens, UniProt P02768); assay: Fluorescence quenching of HSA (Trp214); format: binding; settings: for KSV: pH 7.4
T1 construct: purchased Sigma-Aldrich A1653
Method: Human serum albumin (HSA) was dissolved in 10 mM HEPES buffer (pH 7.4). The HSA concentration was determined spectrophotometrically using the absorbance value at 280 nm (ε280 = 36,500 M^−1cm^−1). Complex 6 was dissolved in 10 mM HEPES buffer (pH 7.4). A series of ruthenium-protein batch solutions were prepared by adding different concentrations of ruthenium solutions to the protein solution prepared previously. For fluorescence acquisition, the final HSA concentration was 2.5 μM, and the ruthenium were 0, 0.6, 1.2, 1.8, 2.5, 5, 7.5, 10, 12.5, 15, 17.5, 20, 22.5, 25, 27.5, 30, 32.5, 35, 37.5, 40, 42.5, and 45 μM. […] The reference solutions were prepared following the procedures described above without protein.
Steady-state fluorescence measurements were carried out with a Fluorolog Model-3.22 spectrofluorometer from Horiba Jobin Yvon at 293.15, 298.15, and 310.15 K. All measurements were performed in Hellma® semi-micro fluorescence cuvettes (Suprasil® quartz, path length 10 × 4 mm, chamber volume […]) with the 10 mm path length for the excitation of the sample. The excitation and emission slit widths were fixed at 4.0 nm, and the excitation wavelength was set at 295 nm to selectively excite the tryptophan 214 residue. The emission spectra were recorded from 305 to 550 nm. Solutions of ruthenium complex in 10 mM HEPES buffer pH 7.4 in corresponding concentrations were used as reference for the measured fluorescence spectra of protein-complex mixtures. […] The fluorescence intensities were corrected for the absorption of the exciting light and re-absorption of the emitted light to decrease the inner filter effect using UV–visible absorption data recorded for each sample on a Jasco V-660 spectrophotometer in the range of 260 to 900 nm with 1 cm path quartz cells.
Fluorescence quenching of HSA by complex [Ru(η5-C5H5)(mTPPMS)(bopy)][CF3SO3] (6) […]
F0 = 1 + K τ (Q) = 1 + K (Q) (S1) where F0 and F are the fluorescence intensities of HSA in the absence and presence of the quencher [Ru(η5-C5H5)(mTPPMS)(bopy)][CF3SO3]; [Q] is the quencher concentration; Kq is the bimolecular quenching constant; t0 is the average fluorescence lifetime of HSA in the absence of the quencher, and KSV is the Stern-Volmer quenching constant.
Figure S10. Stern-Volmer plots at pH7.4 for the quenching of (A) HSA and (B) HSA faf by [Ru(η5-C5H5)(mTPPMS)(bopy)][CF3SO3] at three temperatures (◆) 293 K, (●) 298 K, (▲) 310 K.
log(F0 − F) = log K + nlog[Q] ( S2) […]
where Ka is the association constant for a site and n is the number of binding sites by protein.
Figure S11. Double-log plots for the fluorescence quenching for the (A) {HSA-[Ru(η5-C5H5)(mTPPMS)(bopy)][CF3SO3]} and (B) {HSAfaf-[Ru(η5-C5H5)(mTPPMS)(bopy)][CF3SO3]} systems at three temperatures (◆) 293 K, (●) 298 K, (▲) 310 K. […]

Solubility in water = format: physicochemical; settings: in presence of air, 25 °C
[2] = target: T2, {HSA-warfarin} adduct, Sudlow site I of HSA (Homo sapiens, UniProt P02768); assay: Site-marker competitive study with warfarin; format: binding; settings: HSA and warfarin equimolar 2.5 μM, Ru 0-45 μM, excitation 305 nm, emission ~380 nm
T2 construct: purchased Sigma-Aldrich
T2 sequence (P02768 25-609): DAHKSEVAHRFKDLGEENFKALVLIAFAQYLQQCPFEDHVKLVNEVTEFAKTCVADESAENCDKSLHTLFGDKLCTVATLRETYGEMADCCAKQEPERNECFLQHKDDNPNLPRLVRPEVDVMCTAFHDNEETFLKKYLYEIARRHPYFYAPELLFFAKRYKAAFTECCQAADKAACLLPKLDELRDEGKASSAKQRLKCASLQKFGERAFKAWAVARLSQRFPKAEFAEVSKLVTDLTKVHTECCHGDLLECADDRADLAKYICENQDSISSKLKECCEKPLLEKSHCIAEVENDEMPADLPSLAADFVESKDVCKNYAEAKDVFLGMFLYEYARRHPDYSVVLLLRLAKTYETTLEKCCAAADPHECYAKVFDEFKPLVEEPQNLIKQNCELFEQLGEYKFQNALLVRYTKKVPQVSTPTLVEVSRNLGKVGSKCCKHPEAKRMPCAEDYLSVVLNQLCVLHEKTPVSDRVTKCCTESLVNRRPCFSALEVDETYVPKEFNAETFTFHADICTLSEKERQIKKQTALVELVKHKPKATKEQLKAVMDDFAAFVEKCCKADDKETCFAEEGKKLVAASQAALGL
Method: Competitive binding studies were carried out by fluorescence using the classical site marker warfarin. The concentrations of HSA and warfarin were kept equimolar. The addition of complex 6 to {HSA-warfarin} solution was done according to the procedure described above for the steady-state fluorescence quenching studies.

[3] = system: A2780 ovarian cancer cells; assay: MTT cytotoxicity assay, A2780; format: cell-based, human; settings: A2780, 72 h, mean ± SD n = 3
Method: The cytotoxic activity of all complexes was screened against A2780 (ovarian, Sigma-Aldrich, Lisboa, Portugal), MDAMB231 (breast, triple negative, ATCC), and HT29 (colon, ATCC) human cancer cells. Cells were grown in RPMI 1640 (A2780) or DMEM containing GlutaMax-I (MDAMB231), or McCoy’s (HT29) supplemented with 10% FBS and 1% penicillin/streptomycin (Invitrogen, Lisboa, Portugal). All cell lines were kept in a CO2 incubator (Heraeus, Hanau, Germany) with 5% CO2 at 37 °C in a humidified atmosphere. Cell viability was measured using the colorimetric MTT (3-(4,5-dimethylthiazol-2-yl)-2,5-diphenyltetrazolium bromide) assay. For the assays, cells were seeded in 200 μL of complete medium in 96-well plates and incubated at 37 °C for 24 h prior to complex treatment to allow cell adherence. The stock solutions in water (20 mM) of the complexes were freshly prepared and used for sequential dilutions in medium within the concentration range of 10^−10–10^−4 M. Cisplatin was also included in this study as a positive control. After careful removal of the medium, […] of a serial dilution of compounds in fresh medium was added to the cells, and incubation was carried out for 72 h at 37 °C. At the end of the treatment, the medium was discarded, and the cells were incubated with […] of an MTT solution in PBS (0.5 mg mL^−1). After 3 h incubation, medium was removed, and DMSO was added to solubilize the purple formazan crystals formed. The absorbance at 570 nm was measured using a plate spectrophotometer (Power Wave Xs, Bio-Tek, Winooski, VT, USA). Each experiment was repeated at least three times and each concentration tested in at least six replicates. The IC50 values were calculated from dose–response curves analyzed with the GraphPad Prism software (version 5.0).

T1 sequence (P02768 25-609): as above

For “[RuCp(mTPPMSNa)(bopy)][CF3SO3] [Compound 6]”, the “Ka (association constant for a site)” value ([1]; 293.15 K) was “(38.806 ± 1.26) × 10^4 L mol^−1”, the Kq ([1]; 293.15 K) was “(7.91 ± 0.10) × 10^12 L mol^−1 s^−1” and the “n (number of binding sites)” value ([1]; 293.15 K) was 1.136. For the same substance, the ΔG ([1]; 293.15 K) was -17.3 kcal/mol, the KSV ([1]; 293.15 K) was “(7.91 ± 0.10) × 10^4 L mol^−1” and the “Ka (association constant for a site)” value ([1]; 298.15 K) was “(19.467 ± 1.14) × 10^4 L mol^−1”. The Kq ([1]; 298.15 K) was “(8.73 ± 0.12) × 10^12 L mol^−1 s^−1”, the “n (number of binding sites)” value ([1]; 298.15 K) was 1.053 and the ΔG ([1]; 298.15 K) was -17.64 kcal/mol. The KSV ([1]; 298.15 K) was “(8.73 ± 0.12) × 10^4 L mol^−1”, the “Ka (association constant for a site)” value ([1]; 310.15 K) was “(13.948 ± 1.15) × 10^4 L mol^−1” and the Kq ([1]; 310.15 K) was “(10.4 ± 0.15) × 10^12 L mol^−1 s^−1”. The “n (number of binding sites)” value ([1]; 310.15 K) was 0.994, the ΔG ([1]; 310.15 K) was -18.47 kcal/mol and the KSV ([1]; 310.15 K) was “(10.4 ± 0.15) × 10^4 L mol^−1”. The ΔH ([1]; Van't Hoff, 293.15-310.15 K) was 11.99 (R^2 = 0.9963) kJ mol^−1, the ΔS ([1]; Van't Hoff, 293.15-310.15 K) was 287.92 J mol^−1 K^−1 and the “Quenching of fluorescence intensity” value ([1]; highest Ru concentration (45 μM), pH 7.4, incubation at 298 K for 24 h) was 75%. The “S(H2O)” value (Solubility in water) was 15.3 mg/mL, the “S(H2O)” value (Solubility in water; value in brackets) was 0.015 M and the “Displacement of warfarin from {HSA-warfarin} adduct (in words)” value [2] was “partially replaced”. It also gave an IC50 [3] of 370 ± 200 nM.
